This passage reports IC50 results from patent publication US11053253B2, “Macrocyclic compounds for treatment of medical disorders” (Achillion Pharmaceuticals, Inc., priority 2017, dated 2021).

A value given as a limit tells only on which side of the number the result lay.

The test deals with Human Factor D (Homo sapiens (Human), UniProt P00746). The experiment in a line: Human Factor D Assay. It counts as biochemical. The following applies: Human Factor D 80 nM, substrate Z-L-Lys-SBzl, DTNB, A405; read-out: IC50 (Stars). As to the method: Example 2. Human Factor D Assay
Chain of Human Factor D (P00746 26-253): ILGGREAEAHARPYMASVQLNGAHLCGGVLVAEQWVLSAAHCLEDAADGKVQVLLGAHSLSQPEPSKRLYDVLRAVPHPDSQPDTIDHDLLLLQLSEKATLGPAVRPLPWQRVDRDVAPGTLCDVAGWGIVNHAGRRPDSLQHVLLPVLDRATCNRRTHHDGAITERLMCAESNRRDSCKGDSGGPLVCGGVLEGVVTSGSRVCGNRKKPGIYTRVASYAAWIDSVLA
Human Factor D (purified from human serum, Complement Technology, Inc.) at 80 nM final concentration is incubated with test compound at various concentrations for 5 min at room temperature in 50 mM Tris, 1M NaCl, pH 7.5. A synthetic substrate Z-L-Lys-SBzl and DTNB (Ellman's reagent) are added to final concentrations of 100 µM each. Absorbance at 405 nm (A405) is recorded at 30 second intervals for 30 minutes using a microplate spectrophotometer. IC50 values are calculated by nonlinear regression of Complement Factor D reaction rates as a function of test compound concentration.
A word on the IC50: it is the concentration at which inhibition is half-maximal. As to `CC(=O)c1nn2c3c(cc(-c4cnc(C)nc4)cc13)CCCCCCC(=O)NC[C@@]13C[C@@H](C(=O)N[C@H](C)COC(F)(F)F)N(C(=O)C2)[C@@H]1C3` [Compound T-207], the IC50 was below 1 µM.

Regarding `CC(=O)c1nn2c3c(cc(-c4cnc(C)nc4)cc13)CCCCCCCCC[C@@]13C[C@@H](C(=O)Nc4nc(Br)ccc4C)N(C(=O)C2)[C@@H]1C3` [Compound T-111], the concentration for half-maximal inhibition (IC50) was below 1 µM.

For the compound `CC(=O)c1nn(CC(=O)N2[C@H]3C[C@@]4(COCC=CCOCc5ccc(Br)nc5NC3=O)C[C@@H]24)c2c(CF)cc(-c3cnc(C)nc3)cc12` [Compound T-77], the 50% inhibitory concentration (IC50) was below 1 µM.

As to `CC(=O)c1nn(CC(=O)N2[C@H]3C[C@@]4(COCCCCCCCc5ccc(Br)nc5NC3=O)C[C@@H]24)c2ccc(-c3cnc(C)nc3)cc12` [Compound T-40], the 50% inhibitory concentration (IC50) was below 1 µM.

On to `CC(=O)c1nn(CC(=O)N2[C@H]3C[C@@]4(CNC(=O)C(C)(C)CCCCc5ccc(Br)nc5NC3=O)C[C@@H]24)c2cnc(-c3cnc(C)nc3)cc12` [Compound T-181], for which the IC50 was below 1 µM.

With `CC(=O)c1nn2c3c(cc(-c4cnc(C)nc4)cc13)CCCCCCC(=O)NC[C@@]13C[C@@H](C(=O)N[C@@H](C)c4cccc(Cl)c4F)N(C(=O)C2)[C@@H]1C3` [Compound T-232], the 50% inhibitory concentration (IC50) was below 1 µM.

In the case of `CC(=O)c1nn2c3c(cc(-c4cnc(C)nc4)cc13)CC=CCCCC(=O)NC[C@@]13C[C@@H](C(=O)Nc4ccc(F)c(Br)n4)N(C(=O)C2)[C@@H]1C3` [Compound T-214], the IC50 is below 1 µM.

As for `CC(=O)c1nn2c3c(cc(-c4cnc(C)nc4)cc13)CCCCCCC=CCc1ccc(Br)nc1NC(=O)[C@@H]1C[C@@]3(C)C[C@H]3N1C(=O)C2` [Compound T-37], the IC50 was below 1 µM.

As to `CC(=O)c1nn(CC(=O)N2[C@H]3C[C@]4(C[C@@H]24)CN(C)CCCCC=CCc2ccc(Br)nc2NC3=O)c2c(CF)cc(-c3cnc(C)nc3)cc12` [Compound T-62], the IC50 was below 1 µM.

For the compound `CC(=O)c1nn(CC(=O)N2[C@H]3C[C@@]4(COCCCCCCCc5ccc(Br)nc5NC3=O)C[C@@H]24)c2cnc(-c3cnc(C)nc3)cc12` [Compound T-41], the half-inhibitory concentration (IC50) was below 1 µM.

Regarding `C=C1COCc2ccc(Br)nc2NC(=O)[C@@H]2C[C@]3(C[C@H]3N2C(=O)Cn2nc(C(C)=O)c3cc(-c4cnc(C)nc4)ccc32)Cn2cc1cn2` [Compound T-66], the IC50 is below 1 µM.

For `CC(=O)N[C@@H]1CC=CCOCc2ccc(Br)nc2NC(=O)[C@@H]2C[C@]3(C[C@H]3N2C(=O)Cn2nc(C(C)=O)c3cc(-c4cnc(C)nc4)ccc32)CN(C)C1=O` [Compound T-96], the IC50 is below 1 µM.

Turning to `CC(=O)c1nn2c3c(cc(-c4cnc(C)nc4)cc13)CCCCCCC(=O)NC[C@@]13C[C@@H](C(=O)Nc4cncc(Br)n4)N(C(=O)C2)[C@@H]1C3` [Compound T-234], the half-maximal inhibitory concentration (IC50) is below 1 µM.

Consider `CC(=O)c1nn2c3c(cc(-c4cnc(C)nc4)cc13)CCCCCCC(=O)N(C)C[C@@]13C[C@@H](C(=O)Nc4ccn(CC(F)(F)F)n4)N(C(=O)C2)[C@@H]1C3` [Compound T-203], for which the IC50 is below 1 µM.

As for `CC(=O)c1nn2c3c(cc(-c4cnc(C)nc4)cc13)CCCCCCCCc1cn(nn1)C[C@@]13C[C@@H](C(=O)Nc4nc(Br)ccc4C)N(C(=O)C2)[C@@H]1C3` [Compound T-53], the IC50 is below 1 µM.

For `CC(=O)c1nn2c3c(cc(-c4cnc(C)nc4)cc13)CCCCCCC(=O)NC[C@@]13C[C@@H](C(=O)NC/C(F)=C(/C)c4ccccc4)N(C(=O)C2)[C@@H]1C3` [Compound T-197], the half-inhibitory concentration (IC50) is below 1 µM.

Turning to `Cc1ncc(-c2cc(CF)c3c(c2)c(C=O)nn3CC(=O)N2[C@H]3C[C@]4(C[C@@H]24)CN(C)CCCCCCCc2ccc(Br)nc2NC3=O)cn1` [Compound T-74], the IC50 was below 1 µM.

Turning to `CC(=O)c1nn2c3c(cc(-c4cnc(C)nc4)cc13)CCCCCCC(=O)NC[C@@]1(F)C[C@@H](C(=O)Nc3nc(C(F)(F)F)ccc3C)N(C1)C(=O)C2` [Compound T-168], the IC50 is below 1 µM.

With `COCc1ccc(Br)nc1NC(=O)[C@@H]1C[C@]23CNC(=O)CCCCCCc4cc(-c5cnc(C)nc5)cc5c(C(C)=O)nn(c45)CC(=O)N1[C@@H]2C3` [Compound T-241], the IC50 is below 1 µM.
